Measurements published in patent publication EP4501112A1, “PLANT DEFENSE ELICITORS” (Globachem NV, priority 2023, dated 2025).
Read-outs that look alike come from different tables or passages of the source.

What was measured:
S. avenae = assay: Aphid survival and sucking on untreated leaves after treating one leaf of Chinese cabbage; type: in vivo; parameters: key to S. avenae sucking: 0=no damage or no sucking observed; 1=some damage or some sucking observed; 3=half leaf eaten or half of aphids sucking the leaf; 5=no leaf left or all insects sucking and reproducing; conditions: for S. avenae sucking: scale 0 - 5
[1] = test system: Puccinia triticina (PUCCTR); assay: Greenhouse trial, seed treatment against PUCCTR in wheat; type: in vivo
Text: [table] Table 9. Efficacy assessment of pelargonic acid as seed treatment of PUCCTR in wheat (variety Benchmark)

[2] = test system: Phytophthora infestans (PHYTIN); assay: whole plant or invertebrate; type: in vivo; conditions: in Solanum tuberosum, foliar
Maize (cultivar Mofox) = assay: Abiotic stress (flooding, drought, daily watered) growth trial on maize, foliar treatment
[3] = seed treatment 3.8 g ai/ton, 11 dai
[4] = seed treatment 7.6 g ai/ton, 11 dai
[5] = seed treatment 38 g ai/ton, 11 dai
[6] = seed treatment 76 g ai/ton, 21 dai
[7] = daily watered (normal) conditions, foliar 65 g/ha
[8] = daily watered (normal) conditions, foliar 325 g/ha
[9] = daily watered (normal) conditions, foliar 650 g/ha
[10] = daily watered (normal) conditions, foliar 1300 g/ha
[11] = drought conditions, foliar 65 g/ha
[12] = drought conditions, foliar 325 g/ha
[13] = drought conditions, foliar 650 g/ha
[14] = drought conditions, foliar 1300 g/ha
[15] = flooding conditions, foliar 65 g/ha
[16] = flooding conditions, foliar 325 g/ha
[17] = flooding conditions, foliar 650 g/ha
[18] = flooding conditions, foliar 1300 g/ha

What does the source list for CCCCCCCCC(=O)O [Pelargonic acid, pelargonic acid]?
S. avenae sucking (S. avenae; 0.78 mg on one leaf, insects added 1h after treatment, 6 DAT): 4; S. avenae sucking (S. avenae; 0.78 mg on one leaf, insects added 1h after treatment, 24h AT): 0; S. avenae sucking (S. avenae; 0.78 mg on one leaf, insects added 24 h after treatment, 6 DAT): 1; S. avenae sucking (S. avenae; 0.78 mg on one leaf, insects added 24 h after treatment, 24h AT): 4; S. avenae survival (S. avenae; 0.78 mg on one leaf, insects on non-treated leaves, added 24 h after treatment, 6 DAT): Very small colony; number of S. avenae individuals and sucking (S. avenae; 0.78mg, insects introduced 24h after treatment to an untreated leaf of the same plant): reduction; EFFICACY % ALL LEAVES [1, 3]: 17.3%; EFFICACY % LEAF 1 [1, 3]: 0.0%; EFFICACY % LEAF 2 [1, 3]: 14.3%; EFFICACY % LEAF 3 [1, 3]: 17.6%; EFFICACY % LEAF 4 [1, 3]: 20.0%; EFFICACY % ALL LEAVES [1, 4]: 29.6%; EFFICACY % LEAF 1 [1, 4]: 0.0%; EFFICACY % LEAF 2 [1, 4]: 7.1%; EFFICACY % LEAF 3 [1, 4]: 11.8%; EFFICACY % LEAF 4 [1, 4]: 70.0%; EFFICACY % ALL LEAVES [1, 5]: 6.3%; EFFICACY % LEAF 1 [1, 5]: 0.0%; EFFICACY % LEAF 2 [1, 5]: 7.1%; EFFICACY % LEAF 3 [1, 5]: 11.8%; EFFICACY % LEAF 4 [1, 5]: 0.0%; EFFICACY % ALL LEAVES [1, 6]: 19.2%; EFFICACY % LEAF 1 [1, 6]: 31.8%; EFFICACY % LEAF 2 [1, 6]: 18.9%; EFFICACY % LEAF 3 [1, 6]: 12.0%; EFFICACY % LEAF 4 [1, 6]: 14.0%; % efficacy ([2]; read-out: ASSESSMENT 7 DAI (% efficacy), foliar 0.76 g/ha): 0.2%; % efficacy ([2]; read-out: ASSESSMENT 7 DAI (% efficacy), foliar 1.14 g/ha): 14%; % efficacy ([2]; read-out: ASSESSMENT 7 DAI (% efficacy), foliar 1.52 g/ha): 20.1%; % efficacy ([2]; read-out: ASSESSMENT 7 DAI (% efficacy), foliar 2.66 g/ha): 23%; % efficacy ([2]; read-out: ASSESSMENT 7 DAI (% efficacy), foliar 3.80 g/ha): 18.6%; % efficacy ([2]; read-out: ASSESSMENT 7 DAI (% efficacy), foliar 5.32 g/ha): 17.7%; % efficacy ([2]; read-out: ASSESSMENT 7 DAI (% efficacy), foliar 7.60 g/ha, inoculated 7 days after treatment): 3%; % efficacy ([2]; read-out: ASSESSMENT 14 DAI (% efficacy), foliar 0.76 g/ha): 0%; % efficacy ([2]; read-out: ASSESSMENT 14 DAI (% efficacy), foliar 1.14 g/ha): 7.9%; % efficacy ([2]; read-out: ASSESSMENT 14 DAI (% efficacy), foliar 1.52 g/ha): 22%; % efficacy ([2]; read-out: ASSESSMENT 14 DAI (% efficacy), foliar 2.66 g/ha): 21.9%; % efficacy ([2]; read-out: ASSESSMENT 14 DAI (% efficacy), foliar 3.80 g/ha): 7%; % efficacy ([2]; read-out: ASSESSMENT 14 DAI (% efficacy), foliar 5.32 g/ha): 16.7%; % efficacy ([2]; read-out: ASSESSMENT 14 DAI (% efficacy), foliar 7.60 g/ha): 5.4%; % total growth to control (Maize (cultivar Mofox); [7]): 71%; ASSESSMENT total growth after 15 days (cm) (Maize (cultivar Mofox); [7]): 18.4 cm; % total growth to control (Maize (cultivar Mofox); [8]): 87%; ASSESSMENT total growth after 15 days (cm) (Maize (cultivar Mofox); [8]): 22.5 cm; % total growth to control (Maize (cultivar Mofox); [9]): 95%; ASSESSMENT total growth after 15 days (cm) (Maize (cultivar Mofox); [9]): 24.8 cm; % total growth to control (Maize (cultivar Mofox); [10]): 78%; ASSESSMENT total growth after 15 days (cm) (Maize (cultivar Mofox); [10]): 20.3 cm; % total growth to control (Maize (cultivar Mofox); [11]): 87%; ASSESSMENT total growth after 15 days (cm) (Maize (cultivar Mofox); [11]): 17.4 cm; % total growth to control (Maize (cultivar Mofox); [12]): 87%; ASSESSMENT total growth after 15 days (cm) (Maize (cultivar Mofox); [12]): 17.6 cm; % total growth to control (Maize (cultivar Mofox); [13]): 112%; ASSESSMENT total growth after 15 days (cm) (Maize (cultivar Mofox); [13]): 22.2 cm; % total growth to control (Maize (cultivar Mofox); [14]): 91%; ASSESSMENT total growth after 15 days (cm) (Maize (cultivar Mofox); [14]): 18.2 cm; % total growth to control (Maize (cultivar Mofox); [15]): 104%; ASSESSMENT total growth after 15 days (cm) (Maize (cultivar Mofox); [15]): 26.3 cm; % total growth to control (Maize (cultivar Mofox); [16]): 104%; ASSESSMENT total growth after 15 days (cm) (Maize (cultivar Mofox); [16]): 26.1 cm; % total growth to control (Maize (cultivar Mofox); [17]): 90%; ASSESSMENT total growth after 15 days (cm) (Maize (cultivar Mofox); [17]): 22.6 cm; % total growth to control (Maize (cultivar Mofox); [18]): 82%; ASSESSMENT total growth after 15 days (cm) (Maize (cultivar Mofox); [18]): 20.7 cm
